# US8344008B2 (Janssen Pharmaceutica NV, priority 2007, dated 2013)
# Target: T1, recombinant human LTA4 hydrolase (rhLTA4H) (Homo sapiens, UniProt P09960)
# T1 construct: made in house; host or cells: Spodoptera frugiperda (Sf-9) cells, baculovirus (pFastBac1)
# T1 sequence (P09960 1-611): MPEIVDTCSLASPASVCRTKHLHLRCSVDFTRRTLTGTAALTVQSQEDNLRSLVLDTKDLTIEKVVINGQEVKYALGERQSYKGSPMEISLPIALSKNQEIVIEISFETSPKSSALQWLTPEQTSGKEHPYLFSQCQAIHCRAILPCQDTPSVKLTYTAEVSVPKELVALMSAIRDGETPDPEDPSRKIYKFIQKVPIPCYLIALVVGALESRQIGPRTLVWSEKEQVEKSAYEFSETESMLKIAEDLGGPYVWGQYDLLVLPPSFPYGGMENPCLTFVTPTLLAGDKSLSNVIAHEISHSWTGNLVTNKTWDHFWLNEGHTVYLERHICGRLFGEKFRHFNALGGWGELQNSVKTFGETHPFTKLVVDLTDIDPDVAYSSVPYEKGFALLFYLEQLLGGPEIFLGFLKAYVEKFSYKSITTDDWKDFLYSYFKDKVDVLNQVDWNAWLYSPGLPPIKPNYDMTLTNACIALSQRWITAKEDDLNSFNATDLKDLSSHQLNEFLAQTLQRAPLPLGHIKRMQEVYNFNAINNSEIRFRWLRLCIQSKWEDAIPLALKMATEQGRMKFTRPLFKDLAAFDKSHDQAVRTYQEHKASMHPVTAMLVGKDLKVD
# Assay: Recombinant Human LTA4 Hydrolase Assay for LTA4 Hydrolase Inhibitor Activity
# Assay type: biochemical
# Conditions: average of results obtained; LTB4 quantified by enzyme-linked immunoassay
# In short: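 LTB4 formation, quantified by EIA after 10 min at rt, was the read-out once 9 ng LTA4 (free acid) was added to recombinant human enzyme (36 ng, Sf-9 expressed) that had sat 10 min with compound. Buffer: 0.1 M potassium phosphate pH 7.4 with fatty-acid-free BSA; IC50 by 4-parameter fit.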
row,Compound,Ki [µM]
1,"CS(=O)(=O)N1CC2CCC(C1)N2CCOc1ccc(Oc2nc3cc(Cl)ccc3s2)cc1 [Example 256, meso-5-Chloro-2-{4-[2-(3-methanesulfonyl-3,8-diaza-bicyclo[3.2.1]oct-8-yl)-ethoxy]-phenoxy}-benzothiazole]",1.71
2,"NC(=O)N1[C@@H]2CC[C@H]1C[C@@H](NCCOc1ccc(Oc3nc4cc(Cl)ccc4s3)cc1)C2 [Example 257, meso-endo-3-{2-[4-(5-Chloro-benzothiazol-2-yloxy)-henoxy]-ethylamino}-8-aza-bicyclo[3.2.1]octane-8-carboxylic acid amide]",0.49
3,"Cc1ccc2nc(Oc3ccc(CCN4[C@@H]5CC[C@H]4C[C@@H](NC(N)=O)C5)cc3)sc2c1 [Example 261, meso-endo-(8-{2-[4-(6-Methyl-benzothiazol-2-yloxy)-phenyl]-ethyl}-8-aza-bicyclo[3.2.1]oct-3-yl)-urea]",0.1
4,"CC(=O)N1[C@@H]2CC[C@H]1C[C@H](NCCOc1ccc(Oc3nc4cccc(F)c4s3)cc1)C2 [Example 263, meso-exo-1-(3-{2[4-(7-Fluoro-benzothiazole-2-yloxy)-phenoxy]-ethylamino}8-aza-bicyclo[3.2.1]oct-8-yl)-ethanone]",0.19
5,"CC(=O)N1C[C@@H]2C[C@H]1CN2CCOc1ccc(Oc2nc3cc(Cl)ccc3s2)cc1 [Example 264, (S,S)-1-(5-{2-[4-(5-Chloro-benzothiazole-2-yloxy)-phenoxy]-ethyl}-2,5-diaza-bicyclo[2.2.1]hept-2-yl)-ethanone]",0.212
6,"CS(=O)(=O)N[C@@H]1C[C@H]2CC[C@@H](C1)N2CCOc1ccc(Oc2nc3cc(Cl)ccc3s2)cc1 [Example 265, meso-exo-N-(8-{2-[4-(5-Chloro-benzothiazol-2-yloxy)-phenoxy]-ethyl}-8-aza-bicyclo[3.2.1]oct-3-yl)-methanesulfonamide]",0.31
7,"NC(=O)N1[C@@H]2CC[C@H]1C[C@H](NCCOc1ccc(Oc3nc4ccc(F)cc4s3)cc1)C2 [Example 267, meso-exo-3-{2-[4.(6-Fluoro-benzothiazol-2-yloxy)-phenoxy]-ethylamino}-8-aza-bicyclo[3.2.1]octane-8-carboxylic acid amide]",0.296
8,"CC(=O)N1[C@@H]2CC[C@H]1C[C@H](NCCOc1ccc(Oc3nc4ccc(Cl)cc4s3)cc1)C2 [Example 268, meso-exo-1-(3-{2-[4-(6-Chloro-benzothiazol-2-yloxy)-phenoxy]-ethylamino}-8-aza-bicyclo[3.2.1]oct-8-yl)-ethanone]",0.36
9,"Cc1ccc2nc(Oc3ccc(CCN[C@@H]4C[C@H]5CC[C@@H](C4)N5S(C)(=O)=O)cc3)sc2c1 [Example 269, meso-exo-(8-Methanesulfonyl-8-aza-bicyclo[3.2.1]oct-3-yl)-{2-[4-(6-methyl-benxothiazol-2-yloxy)-phenyl]-ethyl}-amine]",0.63
10,CC(=O)N[C@H]1C[C@H]2CC[C@@H](C1)N2CCOc1ccc(Oc2nc3ccc(C)cc3s2)cc1 [Example 271],0.079
11,"CC(=O)N1C[C@H]2C[C@@H]1CN2CCc1ccc(Oc2nc3cc(Cl)ccc3s2)cc1 [Example 274, (R,R)-1-(5-{2-[4-(5-Chloro-benzothiazol-2-yloxy)-phenyl]-ethyl}-2,5-diaza-bicyclo[2.2.1]hept-2-yl)-ethanone]",0.121
12,"CC(=O)N1[C@@H]2CC[C@H]1C[C@H](NCCc1ccc(Oc3nc4c(Cl)cccc4s3)cc1)C2 [Example 275, meso-exo-1-(3-{2-[4-(4-Chloro-benzothiazol-2-yloxy)-phenyl]-ethylamino}-8-aza-bicyclo[3.2.1]oct-8-yl)-ethanone]",0.264
13,"NC(=O)N[C@H]1C[C@H]2CC[C@@H](C1)N2CCOc1ccc(Oc2nc3cccc(Cl)c3s2)cc1 [Example 278, meso-endo-(8-{2-[4-(7-Chloro-benzothiazol-2-yloxy)-phenoxy]-ethyl}-8-aza-bicyclo[3.2.1]oct-3-yl)-urea]",1.74
14,"CS(=O)(=O)N1CC2CCC(C1)N2CCc1ccc(Oc2nc3c(Cl)cccc3s2)cc1 [Example 281, meso-4-Chloro-2-{4-[2-(3-methanesulfonyl-3,8-diaza-bicyclo[3.2.1]oct-8-yl)-ethyl]-phenoxy}-benzothiazole]",2.04
15,"CC(=O)N1CC2CCC(C1)N2CCOc1ccc(Oc2nc3cccc(Cl)c3s2)cc1 [Example 283, meso-1-(8-{2-[4-(7-Chloro-benzothiazol-2-yloxy)-phenoxy]-ethyl}-3,8-diaza-bicyclo[3.2.1]oct-3-yl)-ethanone]",0.338
16,meso-endo-[4-(6-Chloro-benzothiazol-2-yloxy)-benzyl]-(8-methanesulfonyl-8-aza-bicyclo[3.2.1]oct-3-yl)-amine [Example 228],1.59

# These reach a lower Ki. Values come first.
row,Ki [µM],Compound
1,0.008,"CS(=O)(=O)N1CC2CCC(C1)N2Cc1ccc(Oc2nc3c(F)cccc3s2)cc1 [Example 258, meso-4-Fluoro-2-[4-(3-methanesulfonyl-3,8-diaza-bicyclo[3.2.1]oct-8-ylmethyl)-phenoxy]-benzothiazole]"
2,0.058,"NC(=O)N[C@H]1C[C@H]2CC[C@@H](C1)N2Cc1ccc(Oc2nc3cc(Cl)ccc3s2)cc1 [Example 259, meso-endo-{8-[4-(5-Chloro-benzothiazol-2-yloxy)-benzyl]-8-aza-bicyclo[3.2.1]oct-3-yl}-urea]"
3,0.026,"NC(=O)N[C@@H]1C[C@H]2CC[C@@H](C1)N2Cc1ccc(Oc2nc3cc(F)ccc3s2)cc1 [Example 260, meso-exo-{8-[4-(5-Fluoro-benzothiazol-2-yloxy)-benzyl]-8-aza-bicylclo[3.2.1]oct-3-yl}-urea]"
4,0.012,"NC(=O)N[C@H]1C[C@H]2CC[C@@H](C1)N2CCOc1ccc(Oc2nc3c(F)cccc3s2)cc1 [Example 262, meso-endo-(8-{2-[4-(4-Fluoro-benzothiazole-2-yloxy)-phenoxy]-ethyl}-8-aza-bicyclo[3.2.1]oct-3-yl)-urea]"
5,0.064,"CC(=O)N[C@@H]1C[C@H]2CC[C@@H](C1)N2CCc1ccc(Oc2nc3cc(F)ccc3s2)cc1 [Example 266, meso-exo-N-(8-{2-[4-(5-Fluoro-benzothiazol-2-yloxy)-phenyl]-ethyl}-8-aza-bicyclo[3.2.1]oct-3-yl)-acetamide]"
6,0.072,"CC(=O)N1C[C@@H]2C[C@H]1CN2Cc1ccc(Oc2nc3ccc(C)cc3s2)cc1 [Example 270, (S,S)-1-{5-[4-(6-Methyl-benzothiazol-2-yloxy)-benzyl]-2,5-diaza-bicyclo[2.2.1]hept-2-yl}-ethanone]"
7,0.006,"CC(=O)N[C@@H]1C[C@H]2CC[C@@H](C1)N2Cc1ccc(Oc2nc3ccc(F)cc3s2)cc1 [Example 272, meso-exo-N-{8-[4-(6-Fluoro-benzothiazol-2-yloxy)-benzyl]-8-aza-bicyclo[3.2.1]oct-3-yl}-acetamide]"
8,0.016,"CC(=O)N[C@H]1C[C@H]2CC[C@@H](C1)N2CCOc1ccc(Oc2nc3c(F)cccc3s2)cc1 [Example 273, meso-endo-N-(8-{2-[4-(4-Fluoro-benzothiazol-2-yloxy)-phenoxy]-ethyl}-8-aza-bicyclo[3.2.1]oct-3-yl)-acetamide]"
9,0.038,"CC(=O)N[C@@H]1C[C@H]2CC[C@@H](C1)N2Cc1ccc(Oc2nc3cc(Cl)ccc3s2)cc1 [Example 276, meso-exo-N-{8-[4-(5-Chloro-benzothiazol-2-yloxy)-benzyl]-8-aza-bicyclo[3.2.1]oct-3-yl}-acetamide]"
10,0.017,"CS(=O)(=O)N[C@H]1C[C@H]2CC[C@@H](C1)N2CCc1ccc(Oc2nc3ccc(F)cc3s2)cc1 [Example 277, meso-endo-N-(8-{2-[4-(6-Fluoro-benzothiazol-2-yloxy)-phenyl]-ethyl}-8-aza-bicyclo[3.2.1]oct-3-yl)-methanesulfonamide]"
11,0.021,"CS(=O)(=O)N1[C@@H]2CC[C@H]1C[C@@H](NCCc1ccc(Oc3nc4c(F)cccc4s3)cc1)C2 [Example 279, meso-endo-{2-[4-(4-Fluoro-benzothiazol-2-yloxy)-phenyl]-ethyl}-(8-methanesulfonyl-8-aza-bicyclo[3.2.1]oct-3-yl)-amine]"
12,0.011,"NC(=O)N1C[C@H]2C[C@@H]1CN2CCc1ccc(Oc2nc3ccccc3s2)cc1 [Example 280, (R,R)-5-{2-[4-(Benzothiazol-2-yloxy)-phenyl]-ethyl}-2,5-diaza-bicyclo[2.2.1]heptane-2-carboxylic acid amide]"
13,0.008,"NC(=O)N[C@@H]1C[C@H]2CC[C@@H](C1)N2CCOc1ccc(Oc2nc3cccc(F)c3s2)cc1 [Example 282, meso-exo-(8-{2-[4-(7-Fluoro-benzothiazol-2-yloxy)-phenoxy]-ethyl}-8-aza-bicyclo[3.2.1]oct-3-yl)-urea]"
14,0.029,"CS(=O)(=O)N[C@@H]1C[C@H]2CC[C@@H](C1)N2CCOc1ccc(Oc2nc3ccc(F)cc3s2)cc1 [Example 284, meso-exo-N-(8-{2-[4-(6-Fluoro-benzothiazol-2-yloxy)-phenoxy]-ethyl}-8-aza-bicyclo[3.2.1]oct-3-yl)-methanesulfonamide]"
